Data: ChEMBL document CHEMBL1144447, “3-[4-(methylsulfonyl)phenyl]-5-(trifluoromethyl)(2-pyridyl) phenyl ketone as a potent and orally active cyclooxygenase-2 selective inhibitor: synthesis and biological evaluation” (J Med Chem, 2005)

Key:
[1] = species: Rattus norvegicus; assay: animal or person; details: po, read-out: Inhibition
Description: In vivo antiinflammatory potency in rat air pouch model expressed as inhibition of PGE-2 production following oral dosage of 5.4 mg/kg (15 mmol)

[2] = species: Rattus norvegicus; assay: animal or person; details: po, read-out: Inhibition; remark: listed apart in the source
Description: In vivo antiinflammatory potency in rat air pouch model expressed as inhibition of white blood cell infiltration following oral dosage of 5.4 mg/kg (15 mmol)

[3] = molecular target: Prostaglandin G/H synthase 1 (Homo sapiens, UniProt P23219); format: tissue-based, Blood
Sequence of Prostaglandin G/H synthase 1 (P23219 whole entry): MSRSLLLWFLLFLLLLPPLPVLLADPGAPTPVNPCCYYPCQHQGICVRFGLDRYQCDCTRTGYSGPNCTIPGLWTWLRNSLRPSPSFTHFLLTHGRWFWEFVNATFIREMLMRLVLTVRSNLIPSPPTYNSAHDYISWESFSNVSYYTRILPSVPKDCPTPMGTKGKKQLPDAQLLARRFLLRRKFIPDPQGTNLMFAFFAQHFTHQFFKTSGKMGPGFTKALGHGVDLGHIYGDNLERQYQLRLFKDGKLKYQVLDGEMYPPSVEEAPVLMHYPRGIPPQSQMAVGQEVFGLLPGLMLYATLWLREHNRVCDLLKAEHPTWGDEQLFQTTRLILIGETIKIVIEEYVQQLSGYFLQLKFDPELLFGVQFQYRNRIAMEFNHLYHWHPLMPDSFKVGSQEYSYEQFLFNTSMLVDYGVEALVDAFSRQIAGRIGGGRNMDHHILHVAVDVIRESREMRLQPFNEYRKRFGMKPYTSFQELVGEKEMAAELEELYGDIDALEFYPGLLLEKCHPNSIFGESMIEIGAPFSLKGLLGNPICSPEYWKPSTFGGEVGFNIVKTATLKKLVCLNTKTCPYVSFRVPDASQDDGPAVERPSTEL
Description: In vitro inhibitory concentration against Prostaglandin G/H synthase 1 (COX-1) in human whole blood

[4] = test system: Rattus norvegicus; assay: In vivo antiinflammatory potency in rat air pouch model expressed as inhibition of PGE-2 production following oral dosage of 6.1 mg/kg ([…]); format: functional
[5] = test system: Rattus norvegicus; assay: In vivo antiinflammatory potency in rat air pouch model expressed as inhibition of white blood cell infiltration following oral dosage of 6.1 mg/kg ([…]); format: functional
[6] = molecular target: T1, Prostaglandin G/H synthase 2 (Homo sapiens, UniProt P35354)
T1 sequence (P35354 whole entry): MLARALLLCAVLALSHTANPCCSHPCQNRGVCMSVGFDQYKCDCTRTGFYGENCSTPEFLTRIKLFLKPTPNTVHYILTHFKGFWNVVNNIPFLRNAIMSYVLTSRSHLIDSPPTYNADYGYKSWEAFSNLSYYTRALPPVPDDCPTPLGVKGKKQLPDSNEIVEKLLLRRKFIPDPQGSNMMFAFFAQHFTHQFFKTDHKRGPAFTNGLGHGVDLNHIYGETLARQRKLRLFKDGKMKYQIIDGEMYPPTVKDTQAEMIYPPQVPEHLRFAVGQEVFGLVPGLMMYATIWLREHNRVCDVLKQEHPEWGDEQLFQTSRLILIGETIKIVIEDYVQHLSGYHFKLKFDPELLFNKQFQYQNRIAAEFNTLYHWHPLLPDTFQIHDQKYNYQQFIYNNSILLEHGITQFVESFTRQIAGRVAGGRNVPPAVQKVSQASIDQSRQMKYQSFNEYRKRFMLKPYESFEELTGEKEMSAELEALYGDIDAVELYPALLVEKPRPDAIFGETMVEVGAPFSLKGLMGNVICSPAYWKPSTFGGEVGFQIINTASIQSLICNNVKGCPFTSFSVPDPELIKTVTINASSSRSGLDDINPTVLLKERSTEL
Description: In vitro inhibitory concentration against Prostaglandin G/H synthase 2 (COX-2) in human whole blood

Compound	inhibition in vivo at 5.4 mg/kg [1]	inhibition in vivo at 5.4 mg/kg [2]	IC50 [3]	inhibition in vivo at 6.1 mg/kg [4]	inhibition in vivo at 6.1 mg/kg [5]	IC50 [6]
Cc1ccc(-c2ncc(Cl)cc2-c2ccc(S(C)(=O)=O)cc2)cn1 [ETORICOXIB]	61%	45%	> 200 µM	–	–	–
CS(=O)(=O)c1ccc(-c2cc(C(F)(F)F)cnc2C(=O)c2ccccc2)cc1	–	–	14 µM	58.9%	46.2%	0.25 µM
